What was measured:
[1] = test system: tumours xenografted with cells MDA-MB-231 overexpressing TrkA; conditions: previously demonstrated, ref (34); cited from earlier work
Src = assay: Western blot of Src phosphorylation in MDA-MB-231 cells; assay type: cell-based
Experimental: (§1) FIG. 8: A study of the role of TrkA and EphA2 in the activation of proteins Akt and Src. Cells MDA-MB-231 were respectively treated with a TrkA inhibitor (K252a), an anti-EphA2 siRNA (siEphA2), an inhibitor of PI3-K (LY294002) and an inhibitor of Src (SKI-1).
(§2) A and D. Cells MDA-MB-231 HA-TrkA were treated with proNGF N.C. […] The phosphorylation of Akt and Src was determined by using phospho-specific antibodies. The equal charge was verified using Akt and Src antibodies.
(§3) C and F. The phosphorylation of Akt and Src was determined in the total lysates coming from cells MDA-MB-231 transfected with siEphA2 and treated for 30 minutes with proNGF N.C. (C) or NGF (F).
(§4) After treatment, the cells were lysed (lysis buffer: 40 mM HEPES pH 7.5; 1 mM EDTA pH 8.0; 120 mM NaCl; 10 mM NaPPi; 50 mM NaF; 1.5 mM Na3VO4; 1% Triton X 100; 0.1% SDS; 1 mM PMSF; 10% glycerol and 1/100 th of protease inhibitor cocktail (Sigma) (20 min; 4° C.)). The lysates were recovered and clarified by centrifugation (12,000 g; 10 min; 4° C.). The supernatant was then stored at −80° C. until use. The protein extracts were diluted to 2 μg·μL−1 in a Laemmli 1× buffer (7 min; 100° C.) then deposited and separated on SDS-PAGE (concentration gel 3.6% acrylamide and separation gel 7.5% to 10% acrylamide (thickness 1 mm); 180 V; 10 min then 200 V constant; until output of the migration front). The proteins separated by SDS-PAGE were transferred according to the semi-dry transfer method (buffer: 48 mM Tris base, 39 mM glycine, 1.64 mM SDS, 20% methanol (v/v); 14 V; 15 min per gel) or liquid (buffer: 25 mM Tris base and 192 mM glycine; 15% methanol (v/v); 100 V; 30 min) on nitrocellulose membranes (0.45 μm; Whatman; Germany) or PVDF (0.45 μm; Immobilon P; Millipore; France). The PVDF membrane was “activated” beforehand (methanol; 10 min; 20° C.). The membranes were then saturated (TBS-T; 5% BSA; 1 h; 20° C.) then incubated (16 h; 4° C.) with the chosen primary antibody. […] The membranes were placed in an image analyser (LAS 4000; Fuji) connected to a computer which allowed image generation (software Image Reader LAS 4000).
(§5) The antibody against EphA2 was sc-924 (Santa Cruz), the antibody against sortilin was BD Bioscience 612101, the antibody against TrkA was sc 14024 (Santa Cruz), the antibody against HA was MMS-101R (Covance), the antibody against Akt was Cell Signaling 4691, the antibody against phospho-Akt (Ser 473) was Cell Signaling 9271, the antibody against Src was Cell Signaling 2109 (WB), the antibody against PhosphoSrc (Tyr416) was Cell Signaling 2105 and the antibody against actin was Sigma A2066.
(§6) Proteins Akt and Src were both involved in the pro-invasive effect of proNGF. In order to identify the role of TrkA and EphA2 in the activation of proteins Akt and Src, cells MDA-MB-231 were treated respectively with a TrkA inhibitor (K252a), an anti-EphA2 siRNA (siEphA2) the sequence of which is presented in table 1, a PI3-K inhibitor (LY294002) (the activation of Akt in effect underlies that of PI3-K) and an inhibitor of Src (SKI-1).

Akt = assay: Western blot of Akt phosphorylation in MDA-MB-231 cells; assay type: cell-based; conditions: for effect on Akt activation induced by proNGF: proNGF N.C. 30 min, 10 nM K252a, 15 μM LY294002, 50 nM SKI-1 or siEphA2
Experimental: as §1, §2, §3, §4, §5, §6

[2] = test system: MDA-MB-231 HA-TrkA tumours; assay: Xenograft of MDA-MB-231 HA-TrkA in SCID mice, tumour volume (Experiment 1); assay type: in vivo; conditions: 3 injections every 3 days from day 14; CEP-701 10 mg/kg intraperitoneal, siEphA2 7.5 microg/mouse close to the tumour
Experimental: FIG. 9: A study of the inhibition of TrkA and EphA2 on tumour development in vivo. The tumours were developed without any intervention for 14 days and then subjected to 3 injections (every 3 days, black arrows) of solvent (control), CEP-701 (10 mg/kg), siEphA2 (7.5 microg/mouse) or CEP-701 (10 mg/kg) and siEphA2 (7.5 microg/mouse). The experiments were stopped 31 days after the first injection of the treatment for ethical considerations after the death of the control mice. A) The tumour volumes were evaluated by measuring the length (;) and the width (w) and then calculating the volume using the formula π/6×l×W×(l+w)/2; the Mann and Whitney test was carried out between the control group and CEP-701 (a), between the control groups and siEphA2 (b), between the control groups and CEP-701+siEphA2 (c), and between the groups siEphA2 and CEP-701+siEphA2 (d)*, P<0.05; **, P<0.01; ns: not significant. B) Study of the inhibition of the expression of receptors by siRNA on the overall survival of SCID mice. […] The tumour volumes were evaluated by measuring the length (l) and width (w) and then calculating the volume using the formula π/6×l×W×(l+w)/2. […] Significance was measured using the log-rank test (P=0.0022). […]
Experiment 1: the mice used were six-week old SCID females. […] The tumour volume was measured according to the following formula: π/6×length×width×(width+length)/2. […]

[3] = NGF 30 min, 10 nM K252a or siEphA2

Row | Compound | growth of xenografted tumours [1] | effect on Src phosphorylation induced by NGF (Src; [3]) | effect on Akt phosphorylation induced by NGF (Akt; [3]) | effect on Akt activation induced by proNGF (Akt) | tumour volume / growth of xenografted tumours vs control [2] | effect on Src activation induced by proNGF (Src; proNGF N.C. 30 min, 10 nM K252a, 15 μM LY294002, 50 nM SKI-1 or siEphA2)
1 | COC(=O)[C@@]1(O)C[C@H]2O[C@]1(C)n1c3ccccc3c3c4c(c5c6ccccc6n2c5c31)C(=O)NC4 [K252a, reference compound] | reduces the growth of tumours | inhibited this activation | inhibited this activation | abolished the activation of Akt | – | –
2 | C[C@]12O[C@H](C[C@]1(O)CO)n1c3ccccc3c3c4c(c5c6ccccc6n2c5c31)CNC4=O [CEP-701, reference compound] | – | – | – | – | slightly, but not significantly, reduced | –
3 | COc1cc2ncnc(Nc3ccc(Oc4ccccc4)cc3)c2cc1OC [SKI-1, reference compound] | – | – | – | does not affect the phosphorylation of Akt | – | inhibition of Src

From patent US20170258871A1, “COMBINED USE OF A TRKA INHIBITOR AND AN EPHA2 INHIBITOR FOR USING IN THE TREATMENT OF SOLID CANCERS, AND METHOD FOR THE PROGNOSIS OF SURVIVAL OF A PATIENT WHO HAS A SOLID CANCER” (UNIVERSITE DES SCIENCES ET TECHNOLOGIES DE LILLE, priority 2014, published 2017)
